≈ marks a conversion by molar mass, not a printed value.
Experiments:
Jurkat cell line = experiment: leukemia cell growth inhibition, MTT; assay type: cell-based; conditions: Homo sapiens, 72 h; for inhibition at 16 µg/mL: 16 μg/mL compound, read-out: IR (cell proliferation inhibition rate)
Description: (§1) Leukemia cell lines: leukemia cell lines: K562/adr (drug-resistant, chronic myeloid leukemia, CML), NB4 (acute promyelocytic leukemia, AML), Kasumi-1 (acute myeloid leukemia M2 type, AML-M2), Jurkat (acute lymphoblastic leukemia, ALL), all of which are donated by Cancer Research Institute of Zhejiang University, China; and H9 (acute lymphoblastic leukemia, ALL), which is purchased from China Center for Type Culture Collection (CCTCC).
(§2) Obtaining 6000 well-growing leukemia cells and inoculating them into wells of a 96-well cell culture plate. The culture medium is the 1640 cell culture medium containing 10% fetal bovine serum. After adding the 2-substituted oleanolic acid derivatives of different concentrations and mixing uniformly, placing the plate in a carbon dioxide cell incubator (5% CO2) at 37° C. and incubated for 72 hours. Then the relative number of viable cells is determined by MTT method. In this experiment, cell proliferation inhibition rate in control group (not treated with any compound) is set as 0%.

K562/adr cell line = experiment: leukemia cell growth inhibition, MTT; assay type: cell-based; conditions: Homo sapiens, 72 h; for IC50: K562/Adr; for inhibition at 16 µg/mL: K562/adr, 16 μg/mL compound, read-out: IR (cell proliferation inhibition rate)
Description: as §1, §2

Kasumi-1 cell line = experiment: leukemia cell growth inhibition, MTT; assay type: cell-based; conditions: Homo sapiens; for inhibition at 16 µg/mL: Kasumi-1, 16 μg/mL compound, 72 h, read-out: IR (cell proliferation inhibition rate); for IC50: Kasumi-1, 72 h
Description: as §1, §2

NB4 cell line = experiment: leukemia cell growth inhibition, MTT; assay type: cell-based; conditions: Homo sapiens, NB-4; for inhibition at 16 µg/mL: NB4, 16 μg/mL compound, 72 h, read-out: IR (cell proliferation inhibition rate); for IC50: NB4, 72 h
Description: as §1, §2

H9 cell line = experiment: leukemia cell growth inhibition, MTT; assay type: cell-based; conditions: Homo sapiens; for IC50: H9, 72 h; for inhibition at 16 µg/mL: H9, 16 μg/mL compound, 72 h, read-out: IR (cell proliferation inhibition rate)
Description: as §1, §2

Hep G2 cell line = experiment: solid tumor cell growth inhibition, MTT; assay type: cell-based, human; conditions: Homo sapiens; for inhibition at 16 µg/mL: HepG2, 72 h, Hep G2, 16 μg/mL compound, 72 h, read-out: IR (cell proliferation inhibition rate); for IC50: HepG2, Hep G2, 72 h
Protocol: (§3) Hep-2 (laryngeal carcinoma), A549 (human lung cancer), CaES-17 (esophageal cancer cell), PC-3 (prostate cancer), CNE (nasopharyngeal carcinoma cell), and SK-OV-3 (ovarian cancer cell), all of which are purchased from China Center For Type Culture Collection; RKO (human colon adenocarcinoma cell), MGC 803 (human gastric cancer cell), MG63 (osteosarcoma) and U87 MG (malignant glioma cell), all of which are purchased from Fuxiang Bio-tech Co. Ltd., Shanghai, China; PANC-1 (pancreatic cancer), Hep G2 (human liver cancer cell), Becap37 (human breast cancer cell), and Hela (human cervical cancer cell), all of which are donated by Cancer Research Institute of Zhejiang University, China.
(§4) Obtaining 4000 well-growing human solid tumor cells and inoculating them into wells of a 96-well cell culture plate. The culture medium is DMEM High Glucose cell culture medium containing 10% fetal bovine serum. The plate is placed in a carbon dioxide cell incubator (5% CO2) at 37° C. for 24 hours. After adding the 2-substituted oleanolic acid derivatives of different concentrations and mixing uniformly, the plate is placed in a carbon dioxide cell incubator (5% CO2) at 37° C. and incubated for 72 hours. Then the relative number of the living cells is determined by MTT method. In this experiment, the cell proliferation inhibition rate in control group (not treated with any compound) is set as 0%.

MGC 803 cell line = experiment: solid tumor cell growth inhibition, MTT; assay type: cell-based; conditions: Homo sapiens; for inhibition at 16 µg/mL: MGC 803, 16 μg/mL compound, 72 h, read-out: IR (cell proliferation inhibition rate); for IC50: MGC 803, 72 h
Protocol: as §3, §4

SK-OV-3 cell line = experiment: solid tumor cell growth inhibition, MTT; assay type: cell-based; conditions: Homo sapiens; for IC50: SK-OV-3, 72 h; for inhibition at 16 µg/mL: SK-OV-3, 16 μg/mL compound, 72 h, read-out: IR (cell proliferation inhibition rate)
Protocol: as §3, §4

RKO cell line = experiment: solid tumor cell growth inhibition, MTT; assay type: cell-based; conditions: Homo sapiens, 72 h; for inhibition at 16 µg/mL: 16 μg/mL compound, read-out: IR (cell proliferation inhibition rate)
Protocol: as §3, §4

MG-63 cell line = experiment: solid tumor cell growth inhibition, MTT; assay type: cell-based; conditions: Homo sapiens; for IC50: MG-63, 72 h; for inhibition at 16 µg/mL: MG-63, 16 μg/mL compound, 72 h, read-out: IR (cell proliferation inhibition rate)
Protocol: as §3, §4

Hep-2 cell line = experiment: solid tumor cell growth inhibition, MTT; assay type: cell-based; conditions: Homo sapiens; for IC50: HEp-2, 72 h; for inhibition at 16 µg/mL: Hep-2, 16 μg/mL compound, 72 h, read-out: IR (cell proliferation inhibition rate)
Protocol: as §3, §4

Hela cell line = experiment: solid tumor cell growth inhibition, MTT; assay type: cell-based; conditions: Homo sapiens, 72 h; for IC50: HeLa; for inhibition at 16 µg/mL: Hela, 16 μg/mL compound, read-out: IR (cell proliferation inhibition rate)
Protocol: as §3, §4

PC-3 cell line = experiment: solid tumor cell growth inhibition, MTT; assay type: cell-based; conditions: Homo sapiens; for IC50: PC-3, 72 h; for inhibition at 16 µg/mL: PC-3, 16 μg/mL compound, 72 h, read-out: IR (cell proliferation inhibition rate)
Protocol: as §3, §4

U87 MG cell line = experiment: solid tumor cell growth inhibition, MTT; assay type: cell-based; conditions: Homo sapiens, U-87 MG, 72 h; for inhibition at 16 µg/mL: 16 μg/mL compound, read-out: IR (cell proliferation inhibition rate)
Protocol: as §3, §4

PANC-1 cell line = experiment: solid tumor cell growth inhibition, MTT; assay type: cell-based; conditions: Homo sapiens; for IC50: PANC-1, 72 h; for inhibition at 16 µg/mL: PANC-1, 16 μg/mL compound, 72 h, read-out: IR (cell proliferation inhibition rate)
Protocol: as §3, §4

CaES-17 cell line = experiment: solid tumor cell growth inhibition, MTT; assay type: cell-based; conditions: Homo sapiens, CaEs17; for inhibition at 16 µg/mL: CaES-17, 16 μg/mL compound, 72 h, read-out: IR (cell proliferation inhibition rate); for IC50: CaES-17, 72 h
Protocol: as §3, §4

A549 cell line = experiment: solid tumor cell growth inhibition, MTT; assay type: cell-based; conditions: Homo sapiens; for IC50: A549, 72 h; for inhibition at 16 µg/mL: A549, 16 μg/mL compound, 72 h, read-out: IR (cell proliferation inhibition rate)
Protocol: as §3, §4

CNE cell line = experiment: solid tumor cell growth inhibition, MTT; assay type: cell-based; conditions: Homo sapiens, 72 h; for inhibition at 16 µg/mL: 16 μg/mL compound, read-out: IR (cell proliferation inhibition rate)
Protocol: as §3, §4

Becap37 cell line = experiment: solid tumor cell growth inhibition, MTT; assay type: cell-based; conditions: Homo sapiens; for inhibition at 16 µg/mL: Becap37, 16 μg/mL compound, 72 h, read-out: IR (cell proliferation inhibition rate); for IC50: Becap37, 72 h
Protocol: as §3, §4

RPMI8226 cell line = experiment: multiple myeloma cell growth inhibition, MTT; assay type: cell-based; conditions: Homo sapiens, RPMI-8226; for inhibition at 16 µg/mL: RPMI8226, 16 μg/mL compound, 72 h, read-out: IR (cell proliferation inhibition rate); for IC50: RPMI8226, 72 h
Protocol: Multiple myeloma cell lines: RPMI8226 (multiple myeloma), purchased from Fuxiang Bio-tech Co. Ltd., Shanghai, China.
Obtaining 6000 well-growing cells as above and inoculating them into wells of a 96-well cell culture plate. The culture medium is the 1640 cell culture medium containing 10% fetal bovine serum. After adding the 2-substituted oleanolic acid derivatives of different concentrations and mixing uniformly, placing the plate in a carbon dioxide cell incubator (5% CO2) at 37° C. and incubated for 72 hours. Then the relative number of viable cells is determined by MTT method. In this experiment, cell proliferation inhibition rate in control group (not treated with any compound) is set as 0%.

| SMILES | inhibition at 16 µg/mL (Jurkat cell line) | IC50 (Jurkat cell line) | IC50 (K562/adr cell line) | inhibition at 16 µg/mL (K562/adr cell line) | inhibition at 16 µg/mL (Kasumi-1 cell line) | IC50 (Kasumi-1 cell line) | inhibition at 16 µg/mL (NB4 cell line) | IC50 (NB4 cell line) | IC50 (H9 cell line) | inhibition at 16 µg/mL (H9 cell line) | inhibition at 16 µg/mL (Hep G2 cell line) | IC50 (Hep G2 cell line) | inhibition at 16 µg/mL (MGC 803 cell line) | IC50 (MGC 803 cell line) | IC50 (SK-OV-3 cell line) | inhibition at 16 µg/mL (SK-OV-3 cell line) | inhibition at 16 µg/mL (RKO cell line) | IC50 (RKO cell line) | IC50 (MG-63 cell line) | inhibition at 16 µg/mL (MG-63 cell line) | also measured |
| --- | --- | --- | --- | --- | --- | --- | --- | --- | --- | --- | --- | --- | --- | --- | --- | --- | --- | --- | --- | --- | --- |
| CCC(C)CNC(=O)C1C[C@@]2(C)C(CC[C@]3(C)C2CC=C2C4CC(C)(C)CC[C@]4(C(=O)OC)CC[C@]23C)C(C)(C)C1=O (some centres unmarked) [BS-OA-008] | -33.8% | > 16 µg/mL | 8 µg/mL (≈ 13.7 µM) | 70.1% | 6.7% | > 16 µg/mL | 6.3% | > 16 µg/mL | > 16 µg/mL | 39.8% | 8.1% | > 16 µg/mL | -12.4% | > 16 µg/mL | > 16 µg/mL | 14.3% | -18.6% | > 16 µg/mL | > 16 µg/mL | -12.1% | IC50 (Hep-2 cell line): > 16 µg/mL; inhibition at 16 µg/mL (Hep-2 cell line): 3.5%; IC50 (Hela cell line): > 16 µg/mL; inhibition at 16 µg/mL (Hela cell line): 0.5%; IC50 (PC-3 cell line): > 16 µg/mL; inhibition at 16 µg/mL (PC-3 cell line): 12%; inhibition at 16 µg/mL (U87 MG cell line): 30.1%; IC50 (U87 MG cell line): > 16 µg/mL; IC50 (PANC-1 cell line): > 16 µg/mL; inhibition at 16 µg/mL (PANC-1 cell line): -4.6%; inhibition at 16 µg/mL (CaES-17 cell line): -12.7%; IC50 (CaES-17 cell line): > 16 µg/mL; IC50 (A549 cell line): > 16 µg/mL; inhibition at 16 µg/mL (A549 cell line): 3.4%; inhibition at 16 µg/mL (CNE cell line): 15.1%; IC50 (CNE cell line): > 16 µg/mL; inhibition at 16 µg/mL (Becap37 cell line): 2.3%; IC50 (Becap37 cell line): > 16 µg/mL; inhibition at 16 µg/mL (RPMI8226 cell line): 30%; IC50 (RPMI8226 cell line): > 16 µg/mL |
| CCN(CC)CCNC(=O)C1C[C@@]2(C)C(CC[C@]3(C)C2CC=C2C4CC(C)(C)CC[C@]4(C(=O)OC)CC[C@]23C)C(C)(C)C1=O (some centres unmarked) [BS-OA-012] | 97% | 2.26 µg/mL (≈ 3.7 µM) | 1.09 µg/mL (≈ 1.78 µM) | 99% | 99.3% | 3.18 µg/mL (≈ 5.21 µM) | 99.2% | 2.79 µg/mL (≈ 4.57 µM) | 3.05 µg/mL (≈ 4.99 µM) | 95% | > 96% | 2.36 µg/mL (≈ 3.86 µM) | 100% | 2.56 µg/mL (≈ 4.19 µM) | 3.77 µg/mL (≈ 6.17 µM) | 98.9% | 97.6% | 2 µg/mL (≈ 3.27 µM) | 2.2 µg/mL (≈ 3.6 µM) | 100% | IC50 (Hep-2 cell line): 5.5 µg/mL (≈ 9 µM); inhibition at 16 µg/mL (Hep-2 cell line): 99.9%; IC50 (Hela cell line): 4.19 µg/mL (≈ 6.86 µM); inhibition at 16 µg/mL (Hela cell line): 96.9%; IC50 (PC-3 cell line): 5.08 µg/mL (≈ 8.32 µM); inhibition at 16 µg/mL (PC-3 cell line): 99.7%; inhibition at 16 µg/mL (U87 MG cell line): 98.5%; IC50 (U87 MG cell line): 2.56 µg/mL (≈ 4.19 µM); IC50 (PANC-1 cell line): 4.73 µg/mL (≈ 7.74 µM); inhibition at 16 µg/mL (PANC-1 cell line): 100%; inhibition at 16 µg/mL (CaES-17 cell line): 99.1%; IC50 (CaES-17 cell line): 1.91 µg/mL (≈ 3.13 µM); IC50 (A549 cell line): 2.83 µg/mL (≈ 4.63 µM); inhibition at 16 µg/mL (A549 cell line): 97.4%; inhibition at 16 µg/mL (CNE cell line): 98.8%; IC50 (CNE cell line): 3.74 µg/mL (≈ 6.12 µM); inhibition at 16 µg/mL (Becap37 cell line): 98.4%; IC50 (Becap37 cell line): 4.42 µg/mL (≈ 7.23 µM); inhibition at 16 µg/mL (RPMI8226 cell line): 99%; IC50 (RPMI8226 cell line): 0.74 µg/mL (≈ 1.21 µM) |
